# Laboratory results: patent publication US12378222B2, “NLRP3 inflammasome inhibitors” (Novartis AG, priority 2022, dated 2025)
# How the values were obtained:
# Assay type in all cases: cell-based
# [1] = molecular target: T1, NLRP3 inflammasome (Homo sapiens, UniProt Q96P20); assay: IL-1β secretion assay (nigericin-activated, PMA-differentiated THP-1 cells, HTRF); details: 15 μM nigericin, 3 h, arithmetic mean of at least 3 experiments
# T1 construct: NLRP3-dependent IL-1β secretion was stimulated in PMA-differentiated THP-1 cells by the addition of nigericin; host or cells: THP-1 cells, PMA-differentiated
# T1 sequence (Q96P20 whole entry): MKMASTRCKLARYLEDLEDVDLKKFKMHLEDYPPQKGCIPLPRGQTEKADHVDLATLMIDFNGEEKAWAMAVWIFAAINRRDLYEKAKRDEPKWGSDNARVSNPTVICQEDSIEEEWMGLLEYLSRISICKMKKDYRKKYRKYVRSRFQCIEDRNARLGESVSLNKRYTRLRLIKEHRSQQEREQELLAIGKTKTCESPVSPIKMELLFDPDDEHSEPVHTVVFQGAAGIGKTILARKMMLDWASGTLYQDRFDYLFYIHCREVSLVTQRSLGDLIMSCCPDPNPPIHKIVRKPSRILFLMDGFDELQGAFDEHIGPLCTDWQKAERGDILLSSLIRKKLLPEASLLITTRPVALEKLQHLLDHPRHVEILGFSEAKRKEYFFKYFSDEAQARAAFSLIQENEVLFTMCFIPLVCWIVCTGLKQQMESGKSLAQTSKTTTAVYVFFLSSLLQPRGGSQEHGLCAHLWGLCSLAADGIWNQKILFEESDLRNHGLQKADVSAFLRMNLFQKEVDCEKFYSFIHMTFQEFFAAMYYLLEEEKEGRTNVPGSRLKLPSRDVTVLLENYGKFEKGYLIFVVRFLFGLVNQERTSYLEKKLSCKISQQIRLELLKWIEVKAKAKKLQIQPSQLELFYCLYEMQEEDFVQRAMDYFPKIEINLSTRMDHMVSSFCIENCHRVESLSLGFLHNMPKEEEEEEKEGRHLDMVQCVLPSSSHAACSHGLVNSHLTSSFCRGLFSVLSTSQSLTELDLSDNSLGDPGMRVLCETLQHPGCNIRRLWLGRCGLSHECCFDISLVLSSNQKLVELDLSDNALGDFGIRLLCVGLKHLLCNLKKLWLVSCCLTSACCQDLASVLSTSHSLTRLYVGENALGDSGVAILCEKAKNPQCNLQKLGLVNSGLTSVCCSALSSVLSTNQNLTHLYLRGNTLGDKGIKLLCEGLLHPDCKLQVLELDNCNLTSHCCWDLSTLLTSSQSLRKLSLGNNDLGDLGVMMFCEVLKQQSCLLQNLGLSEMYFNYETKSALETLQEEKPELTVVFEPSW
# [2] = molecular target: T2, hERG (Homo sapiens, UniProt Q12809); assay: hERG channel test using the QPatch technology (automated patch clamp, CHO cells); parameters: host or cells: CHO cells; details: for inhibition at 4 min, 30 µM: human, CHO cells stably expressing hERG channels, pH 7.4, highest test concentration 30 μM
# T2 sequence (Q12809 whole entry): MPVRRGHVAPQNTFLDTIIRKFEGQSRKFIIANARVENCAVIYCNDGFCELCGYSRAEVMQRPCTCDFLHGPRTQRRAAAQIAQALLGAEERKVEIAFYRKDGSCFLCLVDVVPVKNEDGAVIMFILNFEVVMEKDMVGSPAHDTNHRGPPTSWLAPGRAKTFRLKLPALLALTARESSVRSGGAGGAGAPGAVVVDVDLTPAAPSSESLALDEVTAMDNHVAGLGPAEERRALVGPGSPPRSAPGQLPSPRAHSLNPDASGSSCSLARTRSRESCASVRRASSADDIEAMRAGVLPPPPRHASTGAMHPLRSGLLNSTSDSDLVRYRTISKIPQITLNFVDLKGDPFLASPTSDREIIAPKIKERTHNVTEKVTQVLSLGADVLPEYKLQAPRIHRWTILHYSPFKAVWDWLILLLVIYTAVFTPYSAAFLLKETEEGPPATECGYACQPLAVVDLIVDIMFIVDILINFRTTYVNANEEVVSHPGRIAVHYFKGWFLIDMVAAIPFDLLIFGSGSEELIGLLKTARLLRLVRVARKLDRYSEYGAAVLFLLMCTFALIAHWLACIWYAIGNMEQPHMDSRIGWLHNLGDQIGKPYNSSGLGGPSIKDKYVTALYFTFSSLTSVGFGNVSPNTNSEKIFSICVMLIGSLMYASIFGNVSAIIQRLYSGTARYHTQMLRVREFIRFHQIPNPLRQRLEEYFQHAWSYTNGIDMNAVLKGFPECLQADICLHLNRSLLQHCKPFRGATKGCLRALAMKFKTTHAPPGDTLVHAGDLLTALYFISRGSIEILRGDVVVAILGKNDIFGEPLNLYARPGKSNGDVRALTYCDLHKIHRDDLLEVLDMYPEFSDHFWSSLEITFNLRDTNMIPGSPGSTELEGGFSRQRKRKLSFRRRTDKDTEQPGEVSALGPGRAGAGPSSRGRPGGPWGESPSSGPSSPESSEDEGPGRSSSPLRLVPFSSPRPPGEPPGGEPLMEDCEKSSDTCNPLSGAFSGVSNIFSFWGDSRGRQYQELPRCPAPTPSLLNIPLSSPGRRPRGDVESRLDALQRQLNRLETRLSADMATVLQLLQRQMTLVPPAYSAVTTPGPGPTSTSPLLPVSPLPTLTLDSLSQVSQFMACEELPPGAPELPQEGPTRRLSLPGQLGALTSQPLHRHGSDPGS
# Method: CHO cells (AVIVA Biosciences Corp, San Diego, CA) stably expressing hERG channels were patched using a QPatch-HT automated patch clamp instrument (Sophion Bioscience A/S, Ballerup, Denmark) in single hole mode. The intracellular solution consisted of 120 mM KCl, 5 mM CaCl2, 2 mM MgCl2, 10 mM ethylene glycolbis (2-aminoethylether)-N,N,N′,N′-tetraacetic acid (EGTA), 10 mM (4-(2-hydroxyethyl)-1-piperazineethanesulfonic acid (HEPES), and 4 mM dipotassium adenosine-5′-triphosphate (ATP-K2), pH adjusted to 7.2 using KOH. The extracellular solution consisted of 145 mM NaCl, 4 mM KCl, 2 CaCl2, 1 mM MgCl2, 10 mM HEPES, and 0.3% dimethyl sulfoxide (DMSO), adjusted to pH 7.4 using NaOH. All measurements were performed at room temperature, and the blockers were pre-incubated for 4 min. The cells were voltage clamped at −90 mV and the hERG current was activated using a voltage step to +20 mV for 4 s. The hERG tail currents were measured by stepping down to −50 mV for 4 s before returning to −90 mV. This protocol was repeated every 20 s. The peak hERG current was automatically corrected by subtracting the leak current, which was estimated by measuring the mean current during a short depolarizing step to −50 mV from the resting membrane potential just prior to the long depolarizing step to • +20 mV at the beginning of the voltage protocol. Test articles were diluted using DMSO stock solutions and the extracellular solution. […] The effect of the test article on the hERG tail current was assessed and 1, 10 and 30 μM and a positive control (amitriptiline, 1, 3 and μM) was included on each plate.
# [3] = system: Pam3CSK4-stimulated, NF-κB-dependent TNF-α secretion; assay: TNF-α secretion assay (counter screen, THP-1 cells, HTRF); details: Homo sapiens, undifferentiated THP-1 cells, 3 h, at least 2 replicates
# Method: Monocytic THP-1 cells were maintained according to providers' instructions in RPMI media as described above. Undifferentiated cells were plated at 50,000 cells per well in a 384-well flat-bottom cell culture plates (Greiner, #781986), and allowed to rest overnight. Experimental compounds were prepared and added as described above. TNF-α secretion was triggered by the addition of either 1 μg/mL LPS (Sigma, #L4391) or 100 ng/ml Pam3CSK4 (Invivogen, #tlrl-pms) depending on the experiment, and cells were incubated for 3 h. 10 μL supernatant was removed, and TNF-α levels were monitored using an HTRF assay (CisBio, #62TNFPEC) according to manufacturers' instructions. Viability was monitored as
# IC50 values were calculated from the plot of percentage of inhibition versus the inhibitor concentration by a logistics fit according to: y=A2+(A1−A2)/(1+(x/IC50)^p) where y is the %-inhibition at the inhibitor concentration, x. A1 is the lowest inhibition value, i.e. 0%, and A2 the maximum inhibition value, i.e. 100%. The exponent, p, is the Hill coefficient. The curve fitting was conducted with an internally developed software suite. NLRP3-dependent IL-1β secretion was stimulated in PMA-differentiated THP-1 cells by the addition of nigericin, and cytokines were measured in the […] after 3 h. As discussed above, activation of the NLRP3 inflammasome requires both an NF-κB-dependent priming step and the addition of a NLRP3 activator. […] Data for IL-1β secretion was calculated as the arithmetic mean of at least 3 individual experiments, and TNF-α secretion data was consistent across at least 2 individual replicates.
# [4] = molecular target: T3, alpha-subunit of the hERG channel (Homo sapiens, UniProt Q12809); assay: hERG electrophysiological inhibition assay using the Qube technology (automated patch clamp, CHO cells)
# T3 construct: expressed in transfected cells; host or cells: CHO (T-REX) cells, tetracycline-induced
# T3 sequence (Q12809 whole entry): as above
# Method: (§1) Chinese hamster ovary (CHO) cell line, overexpressing the alpha-subunit of the hERG channel under the control of tetracycline-regulated promoter, was created using commercially available T-REX™ system (Invitrogen). CHO (T-REX™) hERG cells were maintained in Ham's F-12 nutrient medium (Life Tech) supplemented with 10% fetal bovine serum (HyClone), 1% penicillin-streptomycin, 10 μg/mL Blasticidin and 50 μg/mL Zeocin (all from Life Technologies, Thermo Fisher Scientific). For hERG expression induction, 1 μg/ml tetracycline (Sigma-Aldrich) was added to the growth media 24 hours before the current recording. To prepare the cell suspension for Qube experiments, cells were dislodged from culture flask by incubation in Detachin (Genlantis) at 37° C. for approximately 5 min, and resuspended in CHO serum free media (CHO-SFM II, Life Technologies) at a density of 2-3 million cells per mL.
# (§2) Patch clamp experiments were performed on the Qube APC (automated patch clamp) platform (Sophion Bioscience A/S, Ballerup, Denmark) using the 384X 10-hole chip at 35° C. Intracellular KF-Ringer's solution consisted of (in mM) 120 KF, 20 KCl, […] ethylene glycol-bis(2-aminoethylether)-N,N,N′,N′-tetraacetic acid (EGTA) and 10 (4-(2-hydroxyethyl)-1-piperazineethanesulfonic acid (HEPES), pH at 7.2 with KOH. Extracellular solution consisted of (in mM) 145 NaCl, 4 KCl, 2 CaCl2, 1 MgCl2, 10 HEPES, 10 Glucose and 0.3% dimethyl sulfoxide (DMSO), pH at 7.4 with NaOH. The hERG current was elicited by applying the following voltage protocol: cells are held at −90 mV resting membrane potential for 100 msec, then clamped at −50 mV for 100 msec for leak estimation, depolarized to +20 mV for 4 sec (peak current measurement) and finally repolarized to −50 mV for 4 sec (tail current recording) before returning to the holding potential of −90 mV. The data are sampled at 10 KHz, with cutoff at 2 kHz, and filtered using the Bessel filter. The protocol was repeated every 15 s, 30 times before and 30 times after a compound application.
# All compounds were prepared as 10 mM stock in 100% DMSO, then serially dilutes 1:3 down in Labcyte 384-well Echo Qualified LDV (low […] volume) microplate. The Qube assay plate was prepared by transferring 0.15-0.3 μL of a compound from the serial dilution plate to the 384-well Greiner plate using Labcyte Echo 650 liquid handler (Beckman). Right before the experiment, the compounds in each well were further diluted in extracellular solution using Biomek i7 liquid handler (Beckman) to create the final concentrations of 0.37, 1.1, 3.3, 10, 15 and 30 μM (1:333 dilution to keep the final DMSO concentration in all samples ≤0.3%). Amitriptyline hydrochloride (positive control) and DMSO (0.3%, vehicle control) were included in each plate.
# (§3) The results were initially reviewed using the Qube specific Sophion Analyzer software (Sophion Bioscience), then analyzed using Data Analysis and Visualization in Discovery (DAVID) software package (Novartis AG). The compound effect on hERG current inhibition (normalized percentage of inhibition) was calculated as % Inh=(Icompound−Ivehicle)/Ivehicle*−100, where Icompound and Ivehicle are the averages of the last three leak-corrected tail hERG currents […] a compound application, respectively. […]
# [5] = molecular target: T2, hERG; assay: as above; parameters: expressed in transfected cells; host or cells: CHO (T-REX) cells, tetracycline-induced; details: human, pH 7.4; 30 μM, CHO (T-REx) hERG cells, 35° C.
# Method: as §1, §2
# All compounds were prepared as 10 mM stock in 100% DMSO, then serially dilutes 1:3 down in Labcyte 384-well Echo Qualified LDV (low diamond volume) microplate. […]
# as §3
# [6] = CHO cells stably expressing hERG, room temperature
# [7] = CHO (T-REx) hERG cells, 35° C., tail current
IC50 [1] [µM],Compound,"IC50 ([2]; CHO cells stably expressing hERG, room temperature, tail current, tested at 1, 10 and 30 μM) [µM]",hERG QPatch IC50 compared with reference examples 1 and 2 ([2]; comparison in words),"inhibition at 4 min, 30 µM [2, 6] [%]",IC50 [3] [µM],"IC50 [4, 7] [µM]",hERG Qube IC50 compared with reference examples 1 and 2 ([4]; comparison in words),"inhibition at 7.5 min, 30 µM [5] [%]",IC50 ([2]; unit inferred) [µM],IC50 ([4]; unit inferred) [µM]
0.00072,"Cc1cc(C(F)(F)F)cc(O)c1-c1cc(CO)c(N[C@@H]2CCCN(C)C2)nn1 [Example 1, (R)-2-(5-(hydroxymethyl)-6-((1-methylpiperidin-3-yl)amino)pyridazin-3-yl)-3-methyl-5-(trifluoromethyl)phenol]",> 30,considerably increased,24.3,> 100,> 30,considerably increased,40.9,–,–
–,"Cc1cc(-c2c(C)cc(C(F)(F)F)cc2O)nnc1N[C@@H]1CCCN(C)C1 [Reference ex. 1, (R)-3-Methyl-2-(5-methyl-6-((1-methylpiperidin-3-yl)amino)pyridazin-3-yl)-5-(trifluoromethyl)phenol]",–,–,64.7,> 33,–,–,77.9,13.1,4.71
–,"Cc1cc(C(F)(F)F)cc(O)c1-c1cc(C(F)(F)F)c(N[C@@H]2CCCN(C)C2)nn1 [Reference ex. 2, (R)-3-methyl-2-(6-((1-methylpiperidin-3-yl)amino)-5-(trifluoromethyl)pyridazin-3-yl)-5-(trifluoromethyl)phenol]",–,–,93.6,> 100,–,–,74.9,3.9,5.62
0.0037,"Cc1cc(C(F)(F)F)cc(O)c1-c1nnc(N[C@@H]2CCCN(C)C2)c2c1COC2 [Reference ex. 3, 3-methyl-2-(4-(((R)-1-methylpiperidin-3-yl)amino)-5,7-dihydrofuro[3,4-d]pyridazin-1-yl)-5-(trifluoromethyl)phenol]",–,–,–,> 100,> 30,–,49.8,–,–
